# Data: ChEMBL document CHEMBL1136067, “The activity of diguanidino and 'reversed' diamidino 2,5-diarylfurans versus Trypanosoma cruzi and Leishmania donovani” (Bioorg Med Chem Lett, 2003)
# Columns and labels:
# [1] = Cell toxicity was evaluated; assay type: functional
# Leishmania donovani [2] = assay: Inhibitory activity against Leishmania donovani (macrophage); assay type: functional, organism-based
# Trypanosoma cruzi = assay: Inhibitory activity against Trypanosoma cruzi; assay type: functional, organism-based
# Leishmania donovani [3] = assay: Inhibitory activity against Leishmania donovani (amastigote); assay type: functional, organism-based
# Nucleic Acid [4] = tested on: Nucleic Acid
# Description: DNA binding affinity measured as an increase in thermal melting of poly(dA.dT)2
# Nucleic Acid [5] = tested on: Nucleic Acid; remark: listed apart in the source
SMILES,IC50 [1],IC50 (Leishmania donovani [2]),IC50 (Trypanosoma cruzi),IC50 (Leishmania donovani [3]; read-out: IC50),ΔTm (Nucleic Acid [4]),ΔTm (Nucleic Acid [5]),IC50 (Leishmania donovani [3])
Cc1cc(NC(=N)N)ccc1-c1ccc(-c2ccc(NC(=N)N)cc2C)o1,14.6 µM,> 6 µM,3.2 µM,3.3 µM,17.8,6.9,
N=C(N)c1ccc(OCCCCCOc2ccc(C(=N)N)cc2)cc1 [PENTAMIDINE],4.2 µM,9.3 µM,7.1 µM,,12.8,4.8,2.6 µM
COc1cc(-c2ccc(-c3ccc(N=C(N)N)c(OC)c3)o2)ccc1N=C(N)N,39.6 µM,> 29 µM,29 µM,14.5 µM,15.4,6.2,
N=C(N)c1ccc(-c2ccc(-c3ccc(C(=N)N)cc3)o2)cc1 [FURAMIDINE],6.4 µM,,23.3 µM,2.7 µM,25,11.7,
CCOc1cc(-c2ccc(-c3ccc(N=C(N)N)c(OCC)c3)o2)ccc1N=C(N)N,74 µM,> 40 µM,152 µM,11.2 µM,16.5,6.8,
N=C(N)Nc1ccc(-c2ccc(-c3ccc(NC(=N)N)cc3)o2)cc1,143 µM,> 24 µM,86 µM,10.9 µM,21.6,10.8,
CSc1cc(-c2ccc(-c3ccc(/N=C(\N)c4ccccn4)c(SC)c3)o2)ccc1/N=C(\N)c1ccccn1,7.3 µM,0.15 µM,0.15 µM,0.35 µM,1,0,
COc1cc(-c2ccc(-c3ccc(/N=C(\N)c4ccccn4)c(OC)c3)o2)ccc1/N=C(\N)c1ccccn1,7.9 µM,0.16 µM,1 µM,0.29 µM,15.2,6.6,
CSc1cc(-c2ccc(-c3ccc(N=C(N)N)c(SC)c3)o2)ccc1N=C(N)N,68 µM,> 19 µM,114 µM,22.6 µM,12.2,2.6,
N=C(N)Nc1ccc(-c2ccc(-c3ccc(NC(=N)N)cc3C(F)(F)F)o2)c(C(F)(F)F)c1,11.3 µM,> 5.6 µM,31.2 µM,14.8 µM,5.9,0,
N=C(N)Nc1ccc(-c2ccc(-c3ccc(NC(=N)N)cc3Cl)o2)c(Cl)c1,14.2 µM,> 6.8 µM,27 µM,6.2 µM,26.1,4.7,
Cc1c(/N=C(\N)c2ccccn2)ccc(-c2ccc(-c3ccc(/N=C(\N)c4ccccn4)c(C)c3C)o2)c1C,60.6 µM,3.6 µM,0.91 µM,1.14 µM,13.8,4.2,
N=C(N)Nc1ccc(-c2ccc(-c3ccc(N=C(N)N)c(Cl)c3)o2)cc1Cl,35.7 µM,> 6.3 µM,44 µM,> 50 µM,12.7,2.6,
COc1cc(NC(=N)N)ccc1-c1ccc(-c2ccc(NC(=N)N)cc2OC)o1,20 µM,5.2 µM,1.3 µM,18.7 µM,15.2,2.8,
N=C(Nc1ccc(-c2ccc(-c3ccc(NC(=N)c4ccccc4)cc3)o2)cc1)c1ccccc1,3.8 µM,> 8 µM,13.7 µM,> 100 µM,28,15,
Cc1c(N=C(N)N)ccc(-c2ccc(-c3ccc(N=C(N)N)c(C)c3C)o2)c1C,33.4 µM,> 19 µM,2.7 µM,4.2 µM,3.8,1.3,
COc1cc(NC(=N)c2ccccn2)ccc1-c1ccc(-c2ccc(NC(=N)c3ccccn3)cc2OC)o1,12.7 µM,0.48 µM,0.57 µM,0.1 µM,19,7.8,
CC(C)Oc1cc(NC(=N)N)ccc1-c1ccc(-c2ccc(NC(=N)N)cc2OC(C)C)o1,16 µM,> 6 µM,35 µM,9.65 µM,12,1.5,
N=C(Nc1ccc(-c2ccc(-c3ccc(NC(=N)c4ccccn4)c(Cl)c3)o2)cc1Cl)c1ccccn1,128 µM,,0.5 µM,0.51 µM,0.6,1.5,
N=C(Nc1ccc(-c2ccc(-c3ccc(NC(=N)c4ccccn4)cc3)o2)cc1)c1ccccn1,17.1 µM,1.45 µM,9.6 µM,0.55 µM,19.6,7.5,
N=C(Nc1ccc(-c2ccc(-c3ccc(NC(=N)c4ccccn4)cc3Cl)o2)c(Cl)c1)c1ccccn1,8 µM,0.13 µM,0.49 µM,0.66 µM,5.2,0,
O=C(Cn1ccnc1[N+](=O)[O-])NCc1ccccc1 [BENZNIDAZOLE],,,1.27 µM,,,,
CCCCCCCCCCCCCCCCOP(=O)([O-])OCC[N+](C)(C)C [MILTEFOSINE],,1 µM,,,,,
Cc1cc(NC(=N)c2ccccn2)ccc1-c1ccc(-c2ccc(NC(=N)c3ccccn3)cc2C)o1,11.3 µM,0.6 µM,0.21 µM,0.38 µM,22.6,8.9,
